Measurements taken from US20260008818A1, “CYCLIC PEPTIDE OR SALT THEREOF, AND USES THEREOF” (FUJIFILM Corporation, priority 2023, published 2026).
Bridge positions count the residues as written; N and C are the ends. Ends that are not written are not given here. COCH2 = acetyl group that carries the bridge

Tested on: Recombinant Human FGFR1 alpha (IIIc) Fc Chimera Protein
Test: Binding affinity of enzymatically synthesized cyclic peptide to FGFR by ELISA
Settings: luminescence signal at reaction concentration 10 nmol/L, SEQ ID NO: 39 standardized to 1, enzyme synthesis product
Method in brief: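 Graded A–D from luminescence at 10 nmol/L peptide, expressed relative to SEQ ID NO: 39 after subtracting wells lacking receptor. Read-out used anti-Myc antibody (2 h, RT) with chemiluminescent substrate, following 3 h RT binding of peptide to immobilized FGFR1α(IIIc)-Fc, 5 ng per well.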

Substance	Evaluation result of binding affinity to FGFR
153 (HCSYERLSFHGHEAPFRVK(COCH2)V; thioether 2-19 (inferred)) [compound 153]	A (0.7 or more)
154 (HCSYERLTFHGHEAPFRVK(COCH2)V; thioether 2-19 (inferred)) [compound 154]	A (0.7 or more)
155 (HCSYERLEFHGHEAPFRVK(COCH2)V; thioether 2-19 (inferred)) [compound 155]	A (0.7 or more)
156 (HCSYERLRFHGHEAPFRVK(COCH2)V; thioether 2-19 (inferred)) [compound 156]	A (0.7 or more)
157 (HCSYERLHFHGHEAPFRVK(COCH2)V; thioether 2-19 (inferred)) [compound 157]	A (0.7 or more)
158 (HCSYERLQLHGHEAPFRVK(COCH2)V; thioether 2-19 (inferred)) [compound 158]	B (0.5 or more and less than 0.7)
159 (HCSYERLQIHGHEAPFRVK(COCH2)V; thioether 2-19 (inferred)) [compound 159]	C (0.1 or more and less than 0.5)
160 (HCSYERLQVHGHEAPFRVK(COCH2)V; thioether 2-19 (inferred)) [compound 160]	C (0.1 or more and less than 0.5)
161 (HCSYERLQYHGHEAPFRVK(COCH2)V; thioether 2-19 (inferred)) [compound 161]	C (0.1 or more and less than 0.5)
162 (HCSYERLQWHGHEAPFRVK(COCH2)V; thioether 2-19 (inferred)) [compound 162]	B (0.5 or more and less than 0.7)
163 (HCSYERLQFGGHEAPFRVK(COCH2)V; thioether 2-19 (inferred)) [compound 163]	C (0.1 or more and less than 0.5)
164 (HCSYERLQFLGHEAPFRVK(COCH2)V; thioether 2-19 (inferred)) [compound 164]	A (0.7 or more)
165 (HCSYERLQFIGHEAPFRVK(COCH2)V; thioether 2-19 (inferred)) [compound 165]	A (0.7 or more)
166 (HCSYERLQFVGHEAPFRVK(COCH2)V; thioether 2-19 (inferred)) [compound 166]	A (0.7 or more)
167 (HCSYERLQFFGHEAPFRVK(COCH2)V; thioether 2-19 (inferred)) [compound 167]	A (0.7 or more)
168 (HCSYERLQFYGHEAPFRVK(COCH2)V; thioether 2-19 (inferred)) [compound 168]	A (0.7 or more)
169 (HCSYERLQFWGHEAPFRVK(COCH2)V; thioether 2-19 (inferred)) [compound 169]	A (0.7 or more)
170 (HCSYERLQFNGHEAPFRVK(COCH2)V; thioether 2-19 (inferred)) [compound 170]	B (0.5 or more and less than 0.7)
171 (HCSYERLQFQGHEAPFRVK(COCH2)V; thioether 2-19 (inferred)) [compound 171]	A (0.7 or more)

Substance	Evaluation result of binding affinity to FGFR
172 (HCSYERLQFSGHEAPFRVK(COCH2)V; thioether 2-19 (inferred)) [compound 172]	B (0.5 or more and less than 0.7)
173 (HCSYERLQFTGHEAPFRVK(COCH2)V; thioether 2-19 (inferred)) [compound 173]	C (0.1 or more and less than 0.5)
174 (HCSYERLQFEGHEAPFRVK(COCH2)V; thioether 2-19 (inferred)) [compound 174]	B (0.5 or more and less than 0.7)
175 (HCSYERLQFRGHEAPFRVK(COCH2)V; thioether 2-19 (inferred)) [compound 175]	A (0.7 or more)
176 (HCSYERLQFHGHGAPFRVK(COCH2)V; thioether 2-19 (inferred)) [compound 176]	C (0.1 or more and less than 0.5)
177 (HCSYERLQFHGHPAPFRVK(COCH2)V; thioether 2-19 (inferred)) [compound 177]	A (0.7 or more)
178 (HCSYERLQFHGHLAPFRVK(COCH2)V; thioether 2-19 (inferred)) [compound 178]	A (0.7 or more)
179 (HCSYERLQFHGHIAPFRVK(COCH2)V; thioether 2-19 (inferred)) [compound 179]	A (0.7 or more)
180 (HCSYERLQFHGHVAPFRVK(COCH2)V; thioether 2-19 via Ac) [compound 180]	A (0.7 or more)
181 (HCSYERLQFHGHFAPFRVK(COCH2)V; thioether 2-19 via Ac) [compound 181]	A (0.7 or more)
182 (HCSYERLQFHGHYAPFRVK(COCH2)V; thioether 2-19 via Ac) [compound 182]	A (0.7 or more)
183 (HCSYERLQFHGHWAPFRVK(COCH2)V; thioether 2-19 via Ac) [compound 183]	A (0.7 or more)
184 (HCSYERLQFHGHNAPFRVK(COCH2)V; thioether 2-19 via Ac) [compound 184]	A (0.7 or more)
185 (HCSYERLQFHGHQAPFRVK(COCH2)V; thioether 2-19 via Ac) [compound 185]	A (0.7 or more)
186 (HCSYERLQFHGHSAPFRVK(COCH2)V; thioether 2-19 via Ac) [compound 186]	A (0.7 or more)
187 (HCSYERLQFHGHTAPFRVK(COCH2)V; thioether 2-19 via Ac) [compound 187]	A (0.7 or more)
188 (HCSYERLQFHGHDAPFRVK(COCH2)V; thioether 2-19 via Ac) [compound 188]	A (0.7 or more)
189 (HCSYERLQFHGHRAPFRVK(COCH2)V; thioether 2-19 via Ac) [compound 189]	A (0.7 or more)
190 (HCSYERLQFHGHHAPFRVK(COCH2)V; thioether 2-19 via Ac) [compound 190]	A (0.7 or more)

Substance	Evaluation result of binding affinity to FGFR
191 (HCSYERLQFHGHEAPFLVK(COCH2)V; thioether 2-19 via Ac) [compound 191]	A (0.7 or more)
192 (HCSYERLQFHGHEAPFIVK(COCH2)V; thioether 2-19 via Ac) [compound 192]	A (0.7 or more)
193 (HCSYERLQFHGHEAPFVVK(COCH2)V; thioether 2-19 via Ac) [compound 193]	A (0.7 or more)
194 (HCSYERLQFHGHEAPFFVK(COCH2)V; thioether 2-19 via Ac) [compound 194]	A (0.7 or more)
195 (HCSYERLQFHGHEAPFYVK(COCH2)V; thioether 2-19 via Ac) [compound 195]	A (0.7 or more)
196 (HCSYERLQFHGHEAPFWVK(COCH2)V; thioether 2-19 via Ac) [compound 196]	A (0.7 or more)
197 (HCSYERLQFHGHEAPFNVK(COCH2)V; thioether 2-19 via Ac) [compound 197]	A (0.7 or more)
198 (HCSYERLQFHGHEAPFQVK(COCH2)V; thioether 2-19 via Ac) [compound 198]	B (0.5 or more and less than 0.7)
199 (HCSYERLQFHGHEAPFSVK(COCH2)V; thioether 2-19 via Ac) [compound 199]	B (0.5 or more and less than 0.7)
200 (HCSYERLQFHGHEAPFTVK(COCH2)V; thioether 2-19 via Ac; not fully specified) [compound 200]	A (0.7 or more)
201 (HCSYERLQFHGHEAPFHVK(COCH2)V; thioether 2-19 via Ac; not fully specified) [compound 201]	A (0.7 or more)
202 (HCSYERLQFHGHEAPFRLK(COCH2)V; thioether 2-19 via Ac; not fully specified) [compound 202]	C (0.1 or more and less than 0.5)
203 (HCSYERLQFHGHEAPFRIK(COCH2)V; thioether 2-19 via Ac; not fully specified) [compound 203]	A (0.7 or more)
204 (HCSYERLQFHGHEAPFRFK(COCH2)V; thioether 2-19 via Ac; not fully specified) [compound 204]	C (0.1 or more and less than 0.5)
205 (HCSYERLQFHGHEAPFRYK(COCH2)V; thioether 2-19 via Ac; not fully specified) [compound 205]	B (0.5 or more and less than 0.7)
206 (HCSYERLQFHGHEAPFRNK(COCH2)V; thioether 2-19 via Ac; not fully specified) [compound 206]	C (0.1 or more and less than 0.5)
207 (HCSYERLQFHGHEAPFRSK(COCH2)V; thioether 2-19 via Ac; not fully specified) [compound 207]	C (0.1 or more and less than 0.5)
208 (HCSYERLQFHGHEAPFRTK(COCH2)V; thioether 2-19 via Ac; not fully specified) [compound 208]	C (0.1 or more and less than 0.5)
209 (HCSYERLQFHGHEAPFRHK(COCH2)V; thioether 2-19 via Ac; not fully specified) [compound 209]	B (0.5 or more and less than 0.7)
